Measurements reported in PubChem BioAssay (NCI).
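GI50: concentration for 50% inhibition of growth. The concentration for full growth arrest is given as TGI.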

Experiments:
Test in all cases: DTP human tumour cell line panel, 384-well format
LOX IMVI melanoma = system: LOX IMVI melanoma
NCI/ADR-RES ovarian = system: NCI/ADR-RES ovarian
HCT-116 colon = system: HCT-116 colon
OVCAR-8 ovarian = system: OVCAR-8 ovarian
K-562 leukemia = system: K-562 leukemia
UO-31 renal = system: UO-31 renal
RPMI-8226 leukemia = system: RPMI-8226 leukemia
SK-OV-3 ovarian = system: SK-OV-3 ovarian
SN12C renal = system: SN12C renal
A498 renal = system: A498 renal
HL-60(TB) leukemia = system: HL-60(TB) leukemia
NCI-H226 lung = system: NCI-H226 lung
U251 glioblastoma = system: U251 glioblastoma
OVCAR-4 ovarian = system: OVCAR-4 ovarian
MDA-MB-435 melanoma = system: MDA-MB-435 melanoma
EKVX NSCLC = system: EKVX NSCLC
IGROV1 ovarian = system: IGROV1 ovarian
SF-268 CNS = system: SF-268 CNS
HS 578T breast = system: HS 578T breast
HOP-92 NSCLC = system: HOP-92 NSCLC
M14 melanoma = system: M14 melanoma
PC-3 prostate = system: PC-3 prostate
UACC-62 melanoma = system: UACC-62 melanoma
DU-145 prostate = system: DU-145 prostate
OVCAR-3 ovarian = system: OVCAR-3 ovarian
HOP-62 NSCLC = system: HOP-62 NSCLC
786-0 renal = system: 786-0 renal
CCRF-CEM leukemia = system: CCRF-CEM leukemia
NCI-H322M lung = system: NCI-H322M lung
SK-MEL-28 melanoma = system: SK-MEL-28 melanoma
MDA-MB-231 breast = system: MDA-MB-231 breast
NCI-H23 lung = system: NCI-H23 lung
RXF 393 renal = system: RXF 393 renal
ACHN renal = system: ACHN renal
T-47D breast = system: T-47D breast
MALME-3M melanoma = system: MALME-3M melanoma
TK-10 renal = system: TK-10 renal
BT-549 breast = system: BT-549 breast
SNB-19 CNS = system: SNB-19 CNS
HCT-15 colon = system: HCT-15 colon
SK-MEL-2 melanoma = system: SK-MEL-2 melanoma
SF-295 CNS = system: SF-295 CNS
NCI-H522 lung = system: NCI-H522 lung
SNB-75 CNS = system: SNB-75 CNS
MCF7 breast = system: MCF7 breast
SW-620 colon = system: SW-620 colon
MOLT-4 leukemia = system: MOLT-4 leukemia
UACC-257 melanoma = system: UACC-257 melanoma
KM12 colon = system: KM12 colon
CAKI-1 renal = system: CAKI-1 renal
HT29 colon = system: HT29 colon
A549 NSCLC = system: A549 NSCLC
OVCAR-5 ovarian = system: OVCAR-5 ovarian
MDA-MB-468 breast = system: MDA-MB-468 breast
SF-539 CNS = system: SF-539 CNS

Clc1ccc(C(c2ccccc2Cl)C(Cl)Cl)cc1 (stereo not given)
GI50 (LOX IMVI melanoma): 16.4 µM | TGI (LOX IMVI melanoma): 30.1 µM | GI50 (NCI/ADR-RES ovarian): 17.4 µM | TGI (NCI/ADR-RES ovarian): 31.4 µM | GI50 (HCT-116 colon): 14.5 µM | TGI (HCT-116 colon): 28.2 µM | GI50 (OVCAR-8 ovarian): 17 µM | TGI (OVCAR-8 ovarian): 30.9 µM | GI50 (K-562 leukemia): 17.9 µM | TGI (K-562 leukemia): 32.1 µM | GI50 (UO-31 renal): 16.6 µM | TGI (UO-31 renal): 30.5 µM | GI50 (RPMI-8226 leukemia): 14 µM | TGI (RPMI-8226 leukemia): 27 µM | GI50 (SK-OV-3 ovarian): 16.1 µM | TGI (SK-OV-3 ovarian): 29.8 µM | GI50 (SN12C renal): 15.7 µM | TGI (SN12C renal): 29.3 µM | GI50 (A498 renal): 17.4 µM | TGI (A498 renal): 31.3 µM | GI50 (HL-60(TB) leukemia): 10.5 µM | TGI (HL-60(TB) leukemia): 22.4 µM | GI50 (NCI-H226 lung): 16.2 µM | TGI (NCI-H226 lung): 29.9 µM | GI50 (U251 glioblastoma): 16.6 µM | TGI (U251 glioblastoma): 30.5 µM | GI50 (OVCAR-4 ovarian): 15.7 µM | TGI (OVCAR-4 ovarian): 29.3 µM | GI50 (MDA-MB-435 melanoma): 16.8 µM | TGI (MDA-MB-435 melanoma): 30.7 µM | GI50 (EKVX NSCLC): 17.3 µM | TGI (EKVX NSCLC): 31.2 µM | GI50 (IGROV1 ovarian): 15 µM | TGI (IGROV1 ovarian): 28.4 µM | GI50 (SF-268 CNS): 16.7 µM | TGI (SF-268 CNS): 30.5 µM | GI50 (HS 578T breast): 17 µM | TGI (HS 578T breast): 30.8 µM | GI50 (HOP-92 NSCLC): 15.1 µM | TGI (HOP-92 NSCLC): 28.5 µM | GI50 (M14 melanoma): 16.6 µM | TGI (M14 melanoma): 30.4 µM | GI50 (PC-3 prostate): 14.3 µM | TGI (PC-3 prostate): 27.6 µM | GI50 (UACC-62 melanoma): 17 µM | TGI (UACC-62 melanoma): 30.8 µM | GI50 (DU-145 prostate): 16.8 µM | TGI (DU-145 prostate): 30.7 µM | GI50 (OVCAR-3 ovarian): 15.5 µM | TGI (OVCAR-3 ovarian): 29 µM | GI50 (HOP-62 NSCLC): 19.5 µM | TGI (HOP-62 NSCLC): 33.7 µM | GI50 ([…]-0 renal): 16.2 µM | TGI (786-0 renal): 29.9 µM | GI50 (CCRF-CEM leukemia): 16.2 µM | TGI (CCRF-CEM leukemia): 29.8 µM | GI50 (NCI-H322M lung): 18.8 µM | TGI (NCI-H322M lung): 33.2 µM | GI50 (SK-MEL-28 melanoma): 17.6 µM | TGI (SK-MEL-28 melanoma): 31.5 µM | GI50 (MDA-MB-231 breast): 16.4 µM | TGI (MDA-MB-231 breast): 30.1 µM | GI50 (NCI-H23 lung): 17 µM | TGI (NCI-H23 lung): 30.9 µM | GI50 (RXF 393 renal): 13.2 µM | TGI (RXF 393 renal): 26.1 µM | GI50 (ACHN renal): 16 µM | TGI (ACHN renal): 29.6 µM | GI50 (T-47D breast): 15.5 µM | TGI (T-47D breast): 29.1 µM | GI50 (MALME-3M melanoma): 14.7 µM | TGI (MALME-3M melanoma): 27.9 µM | GI50 (TK-10 renal): 16.7 µM | TGI (TK-10 renal): 30.6 µM | GI50 (BT-549 breast): 18.5 µM | TGI (BT-549 breast): 32.6 µM | GI50 (SNB-19 CNS): 17.2 µM | TGI (SNB-19 CNS): 31.2 µM | GI50 (HCT-15 colon): 13.9 µM | TGI (HCT-15 colon): 27.3 µM | GI50 (SK-MEL-2 melanoma): 19.1 µM | TGI (SK-MEL-2 melanoma): 33.2 µM | GI50 (SF-295 CNS): 16.2 µM | TGI (SF-295 CNS): 29.8 µM | GI50 (NCI-H522 lung): 12.9 µM | TGI (NCI-H522 lung): 25.7 µM | GI50 (SNB-75 CNS): 17.8 µM | TGI (SNB-75 CNS): 32.3 µM | GI50 (MCF7 breast): 17.6 µM | TGI (MCF7 breast): 31.7 µM | GI50 (SW-620 colon): 15.1 µM | TGI (SW-620 colon): 28.7 µM | GI50 (MOLT-4 leukemia): 5.16 µM | TGI (MOLT-4 leukemia): 17.6 µM | GI50 (UACC-257 melanoma): 17.6 µM | TGI (UACC-257 melanoma): 31.5 µM | GI50 (KM12 colon): 16.3 µM | TGI (KM12 colon): 30.1 µM | GI50 (CAKI-1 renal): 12.9 µM | TGI (CAKI-1 renal): 25.7 µM | GI50 (HT29 colon): 15.1 µM | TGI (HT29 colon): 28.9 µM | GI50 (A549 NSCLC): 16.9 µM | TGI (A549 NSCLC): 31 µM | GI50 (OVCAR-5 ovarian): 16.8 µM | TGI (OVCAR-5 ovarian): 30.7 µM | GI50 (MDA-MB-468 breast): 10.7 µM | TGI (MDA-MB-468 breast): 22.7 µM | GI50 (SF-539 CNS): 17.3 µM | TGI (SF-539 CNS): 31.2 µM
